Results reported in ChEMBL document CHEMBL1909046, “DrugMatrix in vitro pharmacology data”.

Key:
Glucocorticoid receptor = biological target: T1, Glucocorticoid receptor (Homo sapiens, UniProt P04150); details: hela s3; also: in other assays of this panel Not Active means under 50% inhibition at 10 µM
T1 sequence (P04150 whole entry): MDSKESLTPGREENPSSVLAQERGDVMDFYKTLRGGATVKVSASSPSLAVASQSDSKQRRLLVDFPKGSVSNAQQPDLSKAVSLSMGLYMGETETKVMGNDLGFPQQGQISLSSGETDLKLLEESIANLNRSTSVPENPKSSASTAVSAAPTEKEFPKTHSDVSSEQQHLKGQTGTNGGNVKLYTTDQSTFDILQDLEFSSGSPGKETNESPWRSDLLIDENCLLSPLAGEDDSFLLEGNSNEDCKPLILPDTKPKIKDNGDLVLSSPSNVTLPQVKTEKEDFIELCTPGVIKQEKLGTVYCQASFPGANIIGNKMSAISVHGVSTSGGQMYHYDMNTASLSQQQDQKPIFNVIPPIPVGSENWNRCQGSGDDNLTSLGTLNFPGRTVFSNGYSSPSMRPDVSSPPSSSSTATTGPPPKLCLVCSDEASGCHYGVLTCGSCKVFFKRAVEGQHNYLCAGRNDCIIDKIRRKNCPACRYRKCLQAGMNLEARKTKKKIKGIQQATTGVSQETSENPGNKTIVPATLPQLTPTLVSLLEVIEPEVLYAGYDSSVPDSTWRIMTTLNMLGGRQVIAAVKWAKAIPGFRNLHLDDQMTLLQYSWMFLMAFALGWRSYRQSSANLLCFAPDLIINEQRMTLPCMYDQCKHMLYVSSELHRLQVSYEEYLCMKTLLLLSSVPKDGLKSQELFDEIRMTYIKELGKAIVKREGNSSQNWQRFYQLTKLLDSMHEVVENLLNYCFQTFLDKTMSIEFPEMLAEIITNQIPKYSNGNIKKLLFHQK

[1] = DRUGMATRIX: Leukotriene, BLT (LTB4) radioligand binding (ligand: [3H]LTB4); assay type: cell membranes, Membrane; details: u-937; Not Active = under 50% inhibition at 10 µM
[2] = biological target: Kappa-type opioid receptor (Homo sapiens, UniProt P41145); assay: DRUGMATRIX: Opiate kappa (OP2, KOP) radioligand binding (ligand: [3H] Diprenorphine); assay type: cell membranes, HEK293, Membrane; details: hek293; Not Active = under 50% inhibition at 10 µM
Cathepsin G = biological target: T2, Cathepsin G (Homo sapiens, UniProt P08311); assay type: tissue-based; details: neutrophil;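 also: inhibition of Cathepsin G enzyme activity, tested on an AMC-conjugated peptide substrate; in other assays of this panel Not Active means under 50% inhibition at 10 µM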
T2 sequence (P08311 whole entry): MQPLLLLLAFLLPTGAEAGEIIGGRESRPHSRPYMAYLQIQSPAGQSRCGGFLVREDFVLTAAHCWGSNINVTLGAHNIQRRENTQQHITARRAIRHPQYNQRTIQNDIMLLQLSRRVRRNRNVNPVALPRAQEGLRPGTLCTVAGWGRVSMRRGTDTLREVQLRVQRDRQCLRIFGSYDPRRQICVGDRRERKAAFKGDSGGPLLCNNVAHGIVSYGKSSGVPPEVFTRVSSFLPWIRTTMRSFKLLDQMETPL

[3] = biological target: Sodium-dependent dopamine transporter (Homo sapiens, UniProt Q01959); assay: DRUGMATRIX: Dopamine Transporter radioligand binding (ligand: [125I] RTI-55); assay type: cell membranes, CHO-K1, Membrane; details: cho-k1; Not Active = under 50% inhibition at 10 µM
[4] = biological target: Receptor tyrosine-protein kinase erbB-2 (Homo sapiens, UniProt P04626); assay: biochemical; assay type: cell-based, Insect cells; details: insect cells;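 also: inhibition of HER2 kinase enzyme activity, measured with Poly(Glu:Tyr) as the phosphorylation substrate; in other assays of this panel Not Active means under 50% inhibition at 10 µM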
[5] = biological target: T3, Cholecystokinin receptor type A (Homo sapiens, UniProt P32238); assay type: cell membranes, Membrane; details: 1321-n1; also: in other assays of this panel Not Active means under 50% inhibition at 10 µM
T3 sequence (P32238 whole entry): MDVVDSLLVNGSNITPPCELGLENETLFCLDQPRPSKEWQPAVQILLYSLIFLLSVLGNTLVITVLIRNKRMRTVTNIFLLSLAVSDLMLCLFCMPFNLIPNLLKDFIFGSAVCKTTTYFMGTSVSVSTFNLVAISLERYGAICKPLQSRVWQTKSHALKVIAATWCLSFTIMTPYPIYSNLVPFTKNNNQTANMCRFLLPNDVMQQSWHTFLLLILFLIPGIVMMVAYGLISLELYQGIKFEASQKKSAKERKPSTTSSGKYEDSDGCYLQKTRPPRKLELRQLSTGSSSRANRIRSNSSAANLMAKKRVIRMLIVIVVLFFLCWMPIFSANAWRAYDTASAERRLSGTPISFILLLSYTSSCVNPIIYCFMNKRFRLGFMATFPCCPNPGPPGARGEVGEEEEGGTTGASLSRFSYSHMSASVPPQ

[6] = DRUGMATRIX: Glutamate, Kainate radioligand binding (ligand: [3H] Kainic acid); assay type: cell membranes, Rattus norvegicus, Wistar, Brain, Membrane; details: Not Active = under 50% inhibition at 10 µM

Sodium-dependent dopamine transporter, sequence (Q01959 whole entry): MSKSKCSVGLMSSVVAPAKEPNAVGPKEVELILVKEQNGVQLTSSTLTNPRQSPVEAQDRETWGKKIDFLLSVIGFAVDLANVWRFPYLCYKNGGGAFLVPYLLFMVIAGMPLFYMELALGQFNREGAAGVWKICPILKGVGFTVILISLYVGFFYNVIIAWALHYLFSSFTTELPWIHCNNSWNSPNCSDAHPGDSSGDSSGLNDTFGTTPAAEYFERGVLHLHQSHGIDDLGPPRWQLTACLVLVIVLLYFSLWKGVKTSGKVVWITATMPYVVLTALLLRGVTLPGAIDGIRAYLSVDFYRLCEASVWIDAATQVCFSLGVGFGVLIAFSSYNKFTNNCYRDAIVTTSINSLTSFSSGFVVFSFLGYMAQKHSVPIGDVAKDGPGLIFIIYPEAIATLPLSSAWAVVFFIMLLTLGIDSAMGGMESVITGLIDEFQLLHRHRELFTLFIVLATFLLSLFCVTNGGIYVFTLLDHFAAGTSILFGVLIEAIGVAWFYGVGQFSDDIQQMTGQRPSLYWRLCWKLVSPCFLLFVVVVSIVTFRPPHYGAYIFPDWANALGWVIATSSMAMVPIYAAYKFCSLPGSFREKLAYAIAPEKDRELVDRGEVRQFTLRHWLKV
Receptor tyrosine-protein kinase erbB-2, sequence (P04626 whole entry): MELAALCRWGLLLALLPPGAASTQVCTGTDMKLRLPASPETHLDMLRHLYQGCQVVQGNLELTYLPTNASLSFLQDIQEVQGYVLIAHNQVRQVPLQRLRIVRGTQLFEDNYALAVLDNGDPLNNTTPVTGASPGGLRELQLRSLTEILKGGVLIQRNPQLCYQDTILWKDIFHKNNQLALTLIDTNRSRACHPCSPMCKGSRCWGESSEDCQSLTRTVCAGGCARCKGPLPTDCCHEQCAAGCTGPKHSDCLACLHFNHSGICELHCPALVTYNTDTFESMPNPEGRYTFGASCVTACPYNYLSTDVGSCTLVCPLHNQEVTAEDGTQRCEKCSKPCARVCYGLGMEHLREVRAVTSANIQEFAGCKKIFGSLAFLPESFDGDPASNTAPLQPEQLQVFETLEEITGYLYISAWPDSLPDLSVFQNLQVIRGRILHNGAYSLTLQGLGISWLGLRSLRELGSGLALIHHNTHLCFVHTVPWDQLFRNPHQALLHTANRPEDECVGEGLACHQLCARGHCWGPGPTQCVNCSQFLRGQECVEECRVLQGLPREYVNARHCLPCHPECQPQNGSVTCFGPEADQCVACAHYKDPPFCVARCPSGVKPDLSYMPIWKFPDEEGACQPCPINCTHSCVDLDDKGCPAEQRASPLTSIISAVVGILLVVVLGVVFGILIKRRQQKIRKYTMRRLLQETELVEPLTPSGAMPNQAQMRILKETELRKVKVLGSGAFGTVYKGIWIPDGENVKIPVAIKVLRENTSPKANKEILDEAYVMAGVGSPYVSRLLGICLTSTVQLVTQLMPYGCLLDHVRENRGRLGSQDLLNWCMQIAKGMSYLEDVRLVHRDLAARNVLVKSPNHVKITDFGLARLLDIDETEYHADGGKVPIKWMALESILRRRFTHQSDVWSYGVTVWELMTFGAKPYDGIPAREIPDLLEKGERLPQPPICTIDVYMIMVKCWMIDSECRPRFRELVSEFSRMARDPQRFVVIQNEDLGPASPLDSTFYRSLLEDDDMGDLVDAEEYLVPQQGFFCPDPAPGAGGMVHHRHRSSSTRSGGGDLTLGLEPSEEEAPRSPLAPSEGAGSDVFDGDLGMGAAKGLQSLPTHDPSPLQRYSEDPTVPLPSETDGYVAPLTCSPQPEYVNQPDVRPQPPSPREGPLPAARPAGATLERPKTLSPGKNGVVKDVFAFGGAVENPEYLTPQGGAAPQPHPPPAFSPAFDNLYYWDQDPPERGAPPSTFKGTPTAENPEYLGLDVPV
Kappa-type opioid receptor, sequence (P41145 whole entry): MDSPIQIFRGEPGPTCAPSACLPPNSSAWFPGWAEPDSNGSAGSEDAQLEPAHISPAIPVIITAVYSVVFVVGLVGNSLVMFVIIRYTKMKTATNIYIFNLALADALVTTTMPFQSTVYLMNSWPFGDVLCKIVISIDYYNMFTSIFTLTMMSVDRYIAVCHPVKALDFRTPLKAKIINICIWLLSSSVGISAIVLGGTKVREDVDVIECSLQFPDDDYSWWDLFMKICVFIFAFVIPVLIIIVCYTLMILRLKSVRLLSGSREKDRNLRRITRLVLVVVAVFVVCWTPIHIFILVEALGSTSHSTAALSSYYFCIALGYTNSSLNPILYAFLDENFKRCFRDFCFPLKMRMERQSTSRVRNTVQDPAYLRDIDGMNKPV

O=c1cnn([C@@H]2O[C@H](CO)[C@@H](O)[C@H]2O)c(=O)[nH]1 [6-AZAURIDINE]
Not Active: IC50 (Glucocorticoid receptor) | IC50 [1] | Ki [1] | IC50 [2] | IC50 (Cathepsin G) | IC50 [3] | IC50 [4] | IC50 [5] | IC50 [6] | Ki [6]

CC[C@H](C)[C@H]1O[C@]2(C=C[C@@H]1C)C[C@@H]1C[C@@H](C/C=C(\C)[C@@H](O[C@H]3C[C@H](OC)[C@@H](O[C@H]4C[C@H](OC)[C@@H](O)[C@H](C)O4)[C@H](C)O3)[C@@H](C)/C=C/C=C3\CO[C@@H]4[C@H](O)C(C)=C[C@@H](C(=O)O1)[C@]34O)O2.CO[C@H]1C[C@H](O[C@H]2[C@H](C)O[C@@H](O[C@@H]3/C(C)=C/C[C@@H]4C[C@@H](C[C@]5(C=C[C@H](C)[C@@H](C(C)C)O5)O4)OC(=O)[C@@H]4C=C(C)[C@@H](O)[C@H]5OC/C(=C\C=C\[C@@H]3C)[C@]54O)C[C@@H]2OC)O[C@@H](C)[C@@H]1O [ABAMECTIN]
Not Active: IC50 (Glucocorticoid receptor) | IC50 [1] | Ki [1] | IC50 [2] | IC50 (Cathepsin G) | IC50 [3] | IC50 [4] | IC50 [5] | IC50 [6] | Ki [6]

NCCCC(O)(P(=O)(O)O)P(=O)(O)O [ALENDRONIC ACID]
Not Active: IC50 (Glucocorticoid receptor) | IC50 [1] | Ki [1] | IC50 [2] | IC50 (Cathepsin G) | IC50 [3] | IC50 [4] | IC50 [5] | IC50 [6] | Ki [6]

CC1(C)S[C@@H]2[C@H](NC(=O)[C@H](N)c3ccccc3)C(=O)N2[C@H]1C(=O)O [AMPICILLIN]
Not Active: IC50 (Glucocorticoid receptor) | IC50 [1] | Ki [1] | IC50 [2] | IC50 (Cathepsin G) | IC50 [3] | IC50 [4] | IC50 [5] | IC50 [6] | Ki [6]

COc1ccc(C2C(=O)c3ccccc3C2=O)cc1 [ANISINDIONE]
Not Active: IC50 (Glucocorticoid receptor) | IC50 [1] | Ki [1] | IC50 [2] | IC50 (Cathepsin G) | IC50 [3] | IC50 [4] | IC50 [5] | IC50 [6] | Ki [6]

O=C1O[C@H]([C@@H](O)CO)C(O)=C1O [ASCORBIC ACID]
Not Active: IC50 (Glucocorticoid receptor) | IC50 [1] | Ki [1] | IC50 [2] | IC50 (Cathepsin G) | IC50 [3] | IC50 [4] | IC50 [5] | IC50 [6] | Ki [6]

CN1[C@@H]2CC[C@H]1C[C@@H](OC(=O)C(CO)c1ccccc1)C2 (stereo not given in full) [ATROPINE]
Not Active: IC50 (Glucocorticoid receptor) | IC50 [1] | Ki [1] | IC50 [2] | IC50 (Cathepsin G) | IC50 [3] | IC50 [4] | IC50 [5] | IC50 [6] | Ki [6]

CC(C(=O)O)c1ccc2oc(-c3ccc(Cl)cc3)nc2c1 (stereo not given) [BENOXAPROFEN]
Not Active: IC50 (Glucocorticoid receptor) | IC50 [1] | Ki [1] | IC50 [2] | IC50 (Cathepsin G) | IC50 [3] | IC50 [4] | IC50 [5] | IC50 [6] | Ki [6]

COc1ccc2cc3[n+](cc2c1OC)CCc1cc2c(cc1-3)OCO2.[Cl-] [BERBERINE CHLORIDE]
Not Active: IC50 (Glucocorticoid receptor) | IC50 [1] | Ki [1] | IC50 [2] | IC50 (Cathepsin G) | IC50 [3] | IC50 [4] | IC50 [5] | IC50 [6] | Ki [6]

O=C(O)CCNC(=O)c1ccccc1 [BETAMIPRON]
Not Active: IC50 (Glucocorticoid receptor) | IC50 [1] | Ki [1] | IC50 [2] | IC50 (Cathepsin G) | IC50 [3] | IC50 [4] | IC50 [5] | IC50 [6] | Ki [6]

Cc1cc2c(OCC(CNC(C)(C)C)OC(=O)c3ccccc3)cccc2[nH]1 (stereo not given) [BOPINDOLOL]
Not Active: IC50 (Glucocorticoid receptor) | IC50 [1] | Ki [1] | IC50 [2] | IC50 (Cathepsin G) | IC50 [3] | IC50 [4] | IC50 [5] | IC50 [6] | Ki [6]

Brc1c(NC2=NCCN2)ccc2nccnc12 [BRIMONIDINE]
Not Active: IC50 (Glucocorticoid receptor) | IC50 [1] | Ki [1] | IC50 [2] | IC50 (Cathepsin G) | IC50 [3] | IC50 [4] | IC50 [5] | IC50 [6] | Ki [6]

CN(C)[C@@H]1C(O)=C(C(N)=O)C(=O)[C@@]2(O)C(O)=C3C(=O)c4c(O)ccc(Cl)c4[C@@](C)(O)[C@H]3C[C@@H]12 [CHLORTETRACYCLINE]
Not Active: IC50 (Glucocorticoid receptor) | IC50 [1] | Ki [1] | IC50 [2] | IC50 (Cathepsin G) | IC50 [3] | IC50 [4] | IC50 [5] | IC50 [6] | Ki [6]

COc1cc(N)c(Cl)cc1C(=O)NC1CCN(CCCOc2ccc(F)cc2)CC1OC (stereo not given) [CISAPRIDE]
Not Active: IC50 (Glucocorticoid receptor) | IC50 [1] | Ki [1] | IC50 [2] | IC50 (Cathepsin G) | IC50 [3] | IC50 [4] | IC50 [5] | IC50 [6] | Ki [6]
